Data reported in the supplement of paper PMC10307832.

How the values were obtained:
Experiment in all cases: relative viability (nuclei count vs DMSO), 5 days (fraction); higher = more cells survive
[1] = compound: CC1=NN=C(O1)C2=NN=C(C=C2)N3CCC(CC3)OC4=C(C=CC(=C4)F)Cl + Nc1ncn([C@H]2C[C@H](O)[C@@H](CO)O2)c(=O)n1 [Decitabine] (partner 2 µM)
Summary of the method: (§1)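 Relative viability is defined as nuclei in treated wells over nuclei in vehicle wells. Duplicate plates were run and medians reported. Lung cancer cell lines in 1536-well plates were dosed by pin tool one day after seeding, with one drug or with a fixed anchor-drug dose plus five library-drug doses (not always all listed) in √10 steps, and nuclei were counted after 5 days.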

[2] = compound: CC1=NN=C(O1)C2=NN=C(C=C2)N3CCC(CC3)OC4=C(C=CC(=C4)F)Cl + CC(=O)c1c(C)c2cnc(Nc3ccc(N4CCNCC4)cn3)nc2n(C2CCCC2)c1=O [Palbociclib] (partner 0.5 µM)
Summary of the method: as §1

[3] = compound: CC(C)C[C@@H](C(=O)N[C@H](C(=O)OC1CCCC1)c1ccccc1)[C@H](O)C(=O)NO [Tosedostat] + C[C@@H](Oc1cc(-c2cnn(C3CCNCC3)c2)cnc1N)c1c(Cl)ccc(F)c1Cl [Crizotinib] (partner 1 µM)
Summary of the method: as §1

[4] = compound: CC(C)C[C@@H](C(=O)N[C@H](C(=O)OC1CCCC1)c1ccccc1)[C@H](O)C(=O)NO [Tosedostat] + C[C@]1(O)C[C@@H](c2nc(-c3ccc4ccc(-c5ccccc5)nc4c3)c3c(N)nccn32)C1 [Linsitinib] (partner 1 µM)
Summary of the method: as §1

Cell Line	relative viability ([1]; first compound 0.253 µM)	relative viability ([1]; first compound 0.8 µM)	relative viability ([1]; first compound 2.53 µM)	relative viability ([1]; first compound 8 µM)	relative viability ([2]; first compound 0.253 µM)	relative viability ([2]; first compound 0.8 µM)	relative viability ([2]; first compound 2.53 µM)	relative viability ([2]; first compound 8 µM)	relative viability ([3]; first compound 0.02 µM)	relative viability ([3]; first compound 0.06325 µM)	relative viability ([3]; first compound 0.2 µM)	relative viability ([3]; first compound 0.6325 µM)	relative viability ([3]; first compound 2 µM)	relative viability ([4]; first compound 0.02 µM)	relative viability ([4]; first compound 0.06325 µM)	relative viability ([4]; first compound 0.2 µM)	relative viability ([4]; first compound 0.6325 µM)	relative viability ([4]; first compound 2 µM)
NCI-H1975	0.258	0.28	0.358	0.278	0.2	0.363	0.517	0.411	0.939	1.01	1.1	0.773	0.802	0.958	0.988	0.939	0.754	0.769
NCI-H1993	0.554	0.551	0.484	0.647	0.523	0.579	0.644	0.603	0.994	0.761	0.779	0.688	0.685	0.669	0.698	0.742	0.703	0.629
NCI-H2009	0.322	0.304	0.311	0.268	0.175	0.204	0.156	0.158	1.07	1.07	1	1.02	0.924	1.2	1.12	1.17	0.881	1.02
NCI-H2023	0.191	0.185	0.186	0.176	0.28	0.277	0.233	0.199	0.689	0.609	0.747	0.696	0.637	0.659	0.619	0.594	0.65	0.587
